Assay results reported in patent publication US20250188410A1, “NICOTINAMIDE ADENINE DINUCLEOTIDE (NAD+) PRECURSORS, NAD PATHWAY SUBSTRATES COMPOSITIONS AND USES THEREOF” (Colossal Biosciences Inc., priority 2023, published 2025).
Values joined by “and” are separate entries in the source; they are usually repeats but may differ in a detail not shown here. Equal values may be shown once.

Experiments:
bovine embryos [1] = assay: Attachment rate of embryos at day 11 of culture on MEFs in bEPSCM (Experiment 2); type: cell-based
bovine embryos [2] = assay: Presumptive bESC colonies at day 25 by Alkaline Phosphatase staining (bESC derivation); type: cell-based; conditions: for number of presumptive bESC colonies (increase): IVF and PA groups, supplementation during the first seven days; for number of presumptive bESC colonies (increase) / # colonies per cm^2 / Average (# colonies per cm^2) / Fold vs Control (presumptive bESC colonies): day 25; for # colonies per cm^2 / Average (# colonies per cm^2) / Fold vs Control (presumptive bESC colonies) / Number of AP+ Colonies: IVF; for Number of AP+ Colonies: day 25, 12 well plate
Protocol: (§1) After identifying the NAD^+ precursor dosage, experiment 2 was performed. Embryos were cultured in in vitro culture medium (BO-IVC; IVF Biosciences) supplemented with NA or NMN for 7-14 days in air controlled atmosphere (5% CO2 and 5% O2) at 38.5° C. Embryos cultured with NAD^+ precursor were collected at the blastocyst stage (D7) and plated in co-culture with irradiated mouse embryonic fibroblast (MEF) and bovine ESCs medium ([…]) until day 25 for bovine ESCs Derivation: Timeline bESC Derivation: • D0-D7 Incubation of IVF-produced embryos in IVC supplemented with NAD^+ precursor for seven days. • D7 Plating of embryos for ESC derivation on medium […] on Cf1 MEF. Treatment with Y27632 for last 12 hours of culturing. • D14 Mechanically isolate the ICM and transfer to a new plate. […] NMN and Nicotinic Acid (NA, also known as Niacin) were used as the NAD^+ precursors in this experiment. On day 7 of supplementation, blastocysts were collected and plated on MEFs in a […] medium.

bovine embryos [3] = assay: Measurement of ICM and outgrowths for day 14 embryos before ICM isolation; type: cell-based; conditions: PA embryos
bovine embryos [4] = assay: as above; type: cell-based; conditions: IVF embryos
Protocol: as §1

bovine embryos [5] = assay: Presumptive bESC colonies at day 25 by Alkaline Phosphatase staining (bESC derivation); type: cell-based; conditions: PA, replicate 1, 5 seed embryos; for # colonies per cm^2 / Average (# colonies per cm^2) / Fold vs Control (presumptive bESC colonies): day 25; for Number of AP+ Colonies: day 25, 12 well plate
[6] = IVM or embryo culture media supplemented with NMN; cited from earlier work
bovine embryos [7] = assay: Early embryo development of bovine embryos in IVC medium supplemented with NAD+ precursor (Experiment 1); type: cell-based
Protocol: The NAD^+ precursors […] (NMN) or Nicotinic acid […] (NA) (SG; Sigma N7764) were supplemented into in vitro culture medium (BO-IVC; IVF Biosciences), and bovine embryos obtained by in vitro fertilization (IVF) or parthenogenetic activation (PA) were cultured for 7-14 days in air controlled atmosphere (5% CO2 and 5% O2) at 38.5° C. Embryo development was evaluated at day 3 (D3-cleavage rate), day 7 (D7−Blastocyst rate), and day 11 (D11−Hatching rate). In addition, the expansion of hatched blastocysts from day 11-13 was evaluated. Based on this testing (see in Experiment 1 below) suitable dosages of NAD^+ precursors were identified.
Different doses of NMN (125 to 1000 μM) were added to the IVC culture medium containing bovine embryos for up to 14 days. No effect of NAD^+ precursor presence was observed on the cleavage or blastocyst rates for all three replicates (see FIG. 1, FIG. 2A, FIG. 2B, and FIG. 3).

Row | SMILES | % Attached (bovine embryos [1]; IVF embryos) [%] | Fold vs Control (attachment rate) (bovine embryos [1]; IVF embryos) | % Attached (bovine embryos [1]; PA embryos) [%] | Fold vs Control (attachment rate) (bovine embryos [1]; PA embryos) | number of presumptive bESC colonies (increase) (bovine embryos [2]) | # colonies per cm^2 (bovine embryos [2]; replicate 1, 1 seed embryo) | Average (# colonies per cm^2) (bovine embryos [2]; replicate 1, 1 seed embryo) | Fold vs Control (presumptive bESC colonies) (bovine embryos [2]; replicate 1, 1 seed embryo) | Number of AP+ Colonies (bovine embryos [2]; replicate 1, 1 seed embryo) | # colonies per cm^2 (bovine embryos [2]; replicate 2, 5 seed embryos) | Average (# colonies per cm^2) (bovine embryos [2]; replicate 2, 5 seed embryos) | Fold vs Control (presumptive bESC colonies) (bovine embryos [2]; replicate 2, 5 seed embryos) | Number of AP+ Colonies (bovine embryos [2]; replicate 2, 5 seed embryos) | AVG Fold (ICM/outgrowth) (bovine embryos [3]) | AVG ICM (bovine embryos [3]) [μm] | AVG Outgrowth (bovine embryos [3]) [μm] | AVG Fold (ICM/outgrowth) (bovine embryos [4]) | AVG ICM (bovine embryos [4]) [μm] | AVG Outgrowth (bovine embryos [4]) [μm] | # colonies per cm^2 (bovine embryos [5]) | further results
1 | O=C(O)c1cccnc1 [NA, nicotinic acid (pyridine-3-carboxylic acid), reference compound] | 100 | 1.33 | 60 | 3 | increased by three times | 82 and 72.29 and 8 | 54.1 | 2.958 | 287 and 253 and 28 | 33.43 | 33.43 | 3.25 | 117 | 0.1303 | 48.9 | 436.7 | 0.09417 | 76.27 | 905.9 | 15.14 | Average (# colonies per cm^2) (bovine embryos [5]): 15.14; Fold vs Control (presumptive bESC colonies) (bovine embryos [5]): 2.944; Number of AP+ Colonies (bovine embryos [5]): 53
2 | NC(=O)c1ccc[n+]([C@@H]2O[C@H](COP(=O)([O-])O)[C@@H](O)[C@H]2O)c1 [NMN, nicotinamide mononucleotide] | 100 | 1.33 | 60 | 3 | increased by three times | 11.14 and 16.29 and 10.86 | 12.76 | 0.6979 | 39 and 57 and 38 | 16.29 | 16.29 | 1.583 | 57 | 0.1845 | 47.2 | 458.5 | 0.1124 | 58.38 | 645.2 | 12 | maturation or embryo development [6]: no effect; Average (# colonies per cm^2) (bovine embryos [5]): 12; Fold vs Control (presumptive bESC colonies) (bovine embryos [5]): 2.333; Number of AP+ Colonies (bovine embryos [5]): 42; cleavage rate (bovine embryos [7]; NMN 125 to 1000 μM in IVC culture medium, day 3, three replicates): No effect; blastocyst rate (bovine embryos [7]; NMN 125 to 1000 μM in IVC culture medium, day 7, three replicates): No effect; morphology of hatched blastocysts (bovine embryos [7]; supplementation in IVC, day 11 to day 13): beneficially impact
